Source: ChEMBL document CHEMBL1128978, “1-Hydroxy-1,4-dihydroquinoxaline-2,3-diones: Novel antagonists at NMDA receptor glycine sites” (Bioorg Med Chem Lett, 1996)

Experiment: Electrophysiological assays in Xenopus oocytes expressing cloned NMDA receptor (NR1A/2C)
Type: cell-based
Conditions: Rattus norvegicus, Oocyte

| IC50 | SMILES |
| --- | --- |
| 80 nM | O=c1[nH]c2cc(Cl)c(Cl)cc2n(O)c1=O |
| 2500 nM | Oc1nc2cc(C(F)(F)F)cc(Br)c2nc1O |
| 54000 nM | O=c1[nH]c2c(Br)cc(C(F)(F)F)cc2n(O)c1=O |
| 93 nM | Nc1c(Cl)c(Cl)cc2nc(O)c(O)nc12 |
| 2700 nM | O=c1[nH]c2c(Br)c(Cl)c(Cl)cc2n(O)c1=O |
| 1800 nM | Nc1c(Cl)c(Cl)cc2c1[nH]c(=O)c(=O)n2O |
| 19000 nM | O=c1[nH]c2c(Cl)cc(Cl)cc2n(O)c1=O |
| 2100 nM | Oc1nc2cc(C(F)(F)F)cc(Cl)c2nc1O |
| 280 nM | Oc1nc2cc(Cl)cc(Cl)c2nc1O |
| 1300 nM | Oc1nc2cc(Br)cc(Br)c2nc1O |
| 210 nM | Oc1nc2cc(Cl)c(Cl)c(Br)c2nc1O |
| 25000 nM | O=c1[nH]c2c(Cl)cc(C(F)(F)F)cc2n(O)c1=O |
| 2500 nM | O=c1[nH]c2c(Cl)c(Cl)c(Cl)cc2n(O)c1=O |
| 20000 nM | O=c1[nH]c2c(Br)cc(Br)cc2n(O)c1=O |
| 30 nM | Oc1nc2cc(Cl)c(Cl)c(Cl)c2nc1O |
| 130 nM | Oc1nc2cc(Cl)c(Cl)cc2nc1O [2,3-DIHYDROXY-6,7-DICHLOROQUINOXALINE] |
